Columns and labels:
Format in all cases: in vivo
Settings in all cases: post-emergence spray at 4-5 leaf stage, 250 g/ha active ingredient with 450 kg/ha water, rated after 3 weeks in greenhouse
Indian mallow = assay: weed control effect in post-emergence stage (Table 1); design: key: Level 10: completely dead; Level 9: above 95% growth control rate; Level 8: above 90% growth control rate; Level 7: above 80% growth control rate; Level 6: above 70% growth control rate; Level 5: above 60% growth control rate; Level 4: above 50% growth control rate; Level 3: above 20% growth control rate; Level 2: 5%-20% growth control rate; Level 1: below 5% growth control rate
Method in brief: (§1)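 Weeds and crops grown in soil-filled pots in a greenhouse were sprayed at the 4-5 leaf stage (2-3 weeks after sowing). Compounds were applied in acetone with tween 80, diluted in water. After 3 weeks' culture, growth control was scored as fresh weight control rate.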

bidens bipinnata = assay: as above; design: key: Level 10: completely dead; Level 9: above 95% growth control rate; Level 8: above 90% growth control rate; Level 7: above 80% growth control rate; Level 6: above 70% growth control rate; Level 5: above 60% growth control rate; Level 4: above 50% growth control rate; Level 3: above 20% growth control rate; Level 2: 5%-20% growth control rate; Level 1: below 5% growth control rate
Method in brief: as §1

crab grass = assay: as above; design: key: Level 10: completely dead; Level 9: above 95% growth control rate; Level 8: above 90% growth control rate; Level 7: above 80% growth control rate; Level 6: above 70% growth control rate; Level 5: above 60% growth control rate; Level 4: above 50% growth control rate; Level 3: above 20% growth control rate; Level 2: 5%-20% growth control rate; Level 1: below 5% growth control rate
Method in brief: as §1

echinochloa = assay: as above; design: key: Level 10: completely dead; Level 9: above 95% growth control rate; Level 8: above 90% growth control rate; Level 7: above 80% growth control rate; Level 6: above 70% growth control rate; Level 5: above 60% growth control rate; Level 4: above 50% growth control rate; Level 3: above 20% growth control rate; Level 2: 5%-20% growth control rate; Level 1: below 5% growth control rate
Method in brief: as §1

foxtail = assay: as above; design: key: Level 10: completely dead; Level 9: above 95% growth control rate; Level 8: above 90% growth control rate; Level 7: above 80% growth control rate; Level 6: above 70% growth control rate; Level 5: above 60% growth control rate; Level 4: above 50% growth control rate; Level 3: above 20% growth control rate; Level 2: 5%-20% growth control rate; Level 1: below 5% growth control rate
Method in brief: as §1

rorippa indica = assay: as above; design: key: Level 10: completely dead; Level 9: above 95% growth control rate; Level 8: above 90% growth control rate; Level 7: above 80% growth control rate; Level 6: above 70% growth control rate; Level 5: above 60% growth control rate; Level 4: above 50% growth control rate; Level 3: above 20% growth control rate; Level 2: 5%-20% growth control rate; Level 1: below 5% growth control rate
Method in brief: as §1

corn = assay: post-emergence stage experiment, crop (Table 1)
Method in brief: as §1

wheat = assay: post-emergence stage experiment, crop (Table 1)
Method in brief: as §1

rice = assay: post-emergence stage experiment, crop (Table 1); design: key: Level 10: completely dead; Level 9: above 95% growth control rate; Level 8: above 90% growth control rate; Level 7: above 80% growth control rate; Level 6: above 70% growth control rate; Level 5: above 60% growth control rate; Level 4: above 50% growth control rate; Level 3: above 20% growth control rate; Level 2: 5%-20% growth control rate; Level 1: below 5% growth control rate
Method in brief: as §1

SMILES: CCc1nn(CC)c(O)c1C(=O)c1ccc(C(F)(F)F)c(N2CCCCCC2=O)c1Cl [Compound 122]
- weed control effect, Indian mallow (level) (Indian mallow): 5 (Level 5: above 60% growth control rate)
- weed control effect, Bidens bipinnata (level) (bidens bipinnata): 5 (Level 5: above 60% growth control rate)
- weed control effect, Crab grass (level) (crab grass): 3 (Level 3: above 20% growth control rate)
- weed control effect, Echinochloa (level) (echinochloa): 9 (Level 9: above 95% growth control rate)
- weed control effect, Green foxtail (level) (foxtail): 10
- weed control effect, Rorippa indica (level) (rorippa indica): 0
- effect on crop, Corn (level) (corn): 0
- effect on crop, Wheat (level) (wheat): 1 (Level 1: below 5% growth control rate)
- effect on crop, Rice (level) (rice): 5 (Level 5: above 60% growth control rate)

SMILES: CCc1nn(CC)c(OC(=O)c2cn(C)nc2C)c1C(=O)c1ccc(C(F)(F)F)c(N2CCCCCC2=O)c1Cl [Compound 123]
- weed control effect, Indian mallow (level) (Indian mallow): 10
- weed control effect, Bidens bipinnata (level) (bidens bipinnata): 7 (Level 7: above 80% growth control rate)
- weed control effect, Crab grass (level) (crab grass): 3 (Level 3: above 20% growth control rate)
- weed control effect, Echinochloa (level) (echinochloa): 10
- weed control effect, Green foxtail (level) (foxtail): 6 (Level 6: above 70% growth control rate)
- weed control effect, Rorippa indica (level) (rorippa indica): 3 (Level 3: above 20% growth control rate)
- effect on crop, Corn (level) (corn): 4 (Level 4: above 50% growth control rate)
- effect on crop, Wheat (level) (wheat): 1 (Level 1: below 5% growth control rate)
- effect on crop, Rice (level) (rice): 7 (Level 7: above 80% growth control rate)

SMILES: CCn1nc(C2CC2)c(C(=O)c2ccc(C(F)(F)F)c(N3CCCCCC3=O)c2Cl)c1OC(=O)c1cn(C)nc1C [Compound 125]
- weed control effect, Indian mallow (level) (Indian mallow): 10
- weed control effect, Bidens bipinnata (level) (bidens bipinnata): 10
- weed control effect, Crab grass (level) (crab grass): 10
- weed control effect, Echinochloa (level) (echinochloa): 8 (Level 8: above 90% growth control rate)
- weed control effect, Green foxtail (level) (foxtail): 10
- weed control effect, Rorippa indica (level) (rorippa indica): 4 (Level 4: above 50% growth control rate)
- effect on crop, Corn (level) (corn): 5 (Level 5: above 60% growth control rate)
- effect on crop, Wheat (level) (wheat): 2 (Level 2: 5%-20% growth control rate)
- effect on crop, Rice (level) (rice): 10

SMILES: CCn1ncc(C(=O)c2ccc(C(F)(F)F)c(-n3cccn3)c2Cl)c1OC(=O)c1cn(C)nc1C [Compound 127]
- weed control effect, Indian mallow (level) (Indian mallow): 10
- weed control effect, Bidens bipinnata (level) (bidens bipinnata): 10
- weed control effect, Crab grass (level) (crab grass): 3 (Level 3: above 20% growth control rate)
- weed control effect, Echinochloa (level) (echinochloa): 10
- weed control effect, Green foxtail (level) (foxtail): 10
- weed control effect, Rorippa indica (level) (rorippa indica): 10
- effect on crop, Corn (level) (corn): 1 (Level 1: below 5% growth control rate)
- effect on crop, Wheat (level) (wheat): 1 (Level 1: below 5% growth control rate)
- effect on crop, Rice (level) (rice): 7 (Level 7: above 80% growth control rate)

SMILES: CCc1nn(C)c(O)c1C(=O)c1ccc(C(F)(F)F)c(-n2cccn2)c1Cl [Compound 130]
- weed control effect, Indian mallow (level) (Indian mallow): 0
- weed control effect, Bidens bipinnata (level) (bidens bipinnata): 3 (Level 3: above 20% growth control rate)
- weed control effect, Crab grass (level) (crab grass): 3 (Level 3: above 20% growth control rate)
- weed control effect, Echinochloa (level) (echinochloa): 10
- weed control effect, Green foxtail (level) (foxtail): 10
- weed control effect, Rorippa indica (level) (rorippa indica): 10
- effect on crop, Corn (level) (corn): 4 (Level 4: above 50% growth control rate)
- effect on crop, Wheat (level) (wheat): 2 (Level 2: 5%-20% growth control rate)
- effect on crop, Rice (level) (rice): 7 (Level 7: above 80% growth control rate)

SMILES: CCc1nn(CC)c(O)c1C(=O)c1ccc(C(F)(F)F)c(-n2cccn2)c1Cl [Compound 132]
- weed control effect, Indian mallow (level) (Indian mallow): 5 (Level 5: above 60% growth control rate)
- weed control effect, Bidens bipinnata (level) (bidens bipinnata): 5 (Level 5: above 60% growth control rate)
- weed control effect, Crab grass (level) (crab grass): 3 (Level 3: above 20% growth control rate)
- weed control effect, Echinochloa (level) (echinochloa): 9 (Level 9: above 95% growth control rate)
- weed control effect, Green foxtail (level) (foxtail): 10
- weed control effect, Rorippa indica (level) (rorippa indica): 0
- effect on crop, Corn (level) (corn): 0
- effect on crop, Wheat (level) (wheat): 1 (Level 1: below 5% growth control rate)
- effect on crop, Rice (level) (rice): 5 (Level 5: above 60% growth control rate)

SMILES: CCc1nn(CC)c(OC(=O)c2cn(C)nc2C)c1C(=O)c1ccc(C(F)(F)F)c(-n2cccn2)c1Cl [Compound 133]
- weed control effect, Indian mallow (level) (Indian mallow): 10
- weed control effect, Bidens bipinnata (level) (bidens bipinnata): 8 (Level 8: above 90% growth control rate)
- weed control effect, Crab grass (level) (crab grass): 2 (Level 2: 5%-20% growth control rate)
- weed control effect, Echinochloa (level) (echinochloa): 10
- weed control effect, Green foxtail (level) (foxtail): 8 (Level 8: above 90% growth control rate)
- weed control effect, Rorippa indica (level) (rorippa indica): 4 (Level 4: above 50% growth control rate)
- effect on crop, Corn (level) (corn): 4 (Level 4: above 50% growth control rate)
- effect on crop, Wheat (level) (wheat): 2 (Level 2: 5%-20% growth control rate)
- effect on crop, Rice (level) (rice): 8 (Level 8: above 90% growth control rate)

SMILES: CCn1ncc(C(=O)c2ccc(C(F)(F)F)c(-n3cc(C)cn3)c2Cl)c1O [Compound 136]
- weed control effect, Indian mallow (level) (Indian mallow): 10
- weed control effect, Bidens bipinnata (level) (bidens bipinnata): 10
- weed control effect, Crab grass (level) (crab grass): 7 (Level 7: above 80% growth control rate)
- weed control effect, Echinochloa (level) (echinochloa): 10
- weed control effect, Green foxtail (level) (foxtail): 10
- weed control effect, Rorippa indica (level) (rorippa indica): 10
- effect on crop, Corn (level) (corn): 1 (Level 1: below 5% growth control rate)
- effect on crop, Wheat (level) (wheat): 1 (Level 1: below 5% growth control rate)
- effect on crop, Rice (level) (rice): 10

SMILES: CCn1ncc(C(=O)c2ccc(C(F)(F)F)c(-n3cc(C)cn3)c2Cl)c1OC(=O)c1cn(C)nc1C [Compound 137]
- weed control effect, Indian mallow (level) (Indian mallow): 10
- weed control effect, Bidens bipinnata (level) (bidens bipinnata): 10
- weed control effect, Crab grass (level) (crab grass): 7 (Level 7: above 80% growth control rate)
- weed control effect, Echinochloa (level) (echinochloa): 10
- weed control effect, Green foxtail (level) (foxtail): 10
- weed control effect, Rorippa indica (level) (rorippa indica): 8 (Level 8: above 90% growth control rate)
- effect on crop, Corn (level) (corn): 5 (Level 5: above 60% growth control rate)
- effect on crop, Wheat (level) (wheat): 3 (Level 3: above 20% growth control rate)
- effect on crop, Rice (level) (rice): 8 (Level 8: above 90% growth control rate)

SMILES: CCn1nc(C)c(C(=O)c2ccc(C(F)(F)F)c(-n3cc(C)cn3)c2Cl)c1OC(=O)c1cn(C)nc1C [Compound 139]
- weed control effect, Indian mallow (level) (Indian mallow): 3 (Level 3: above 20% growth control rate)
- weed control effect, Bidens bipinnata (level) (bidens bipinnata): 5 (Level 5: above 60% growth control rate)
- weed control effect, Crab grass (level) (crab grass): 8 (Level 8: above 90% growth control rate)
- weed control effect, Echinochloa (level) (echinochloa): 10
- weed control effect, Green foxtail (level) (foxtail): 10
- weed control effect, Rorippa indica (level) (rorippa indica): 10
- effect on crop, Corn (level) (corn): 4 (Level 4: above 50% growth control rate)
- effect on crop, Wheat (level) (wheat): 2 (Level 2: 5%-20% growth control rate)
- effect on crop, Rice (level) (rice): 9 (Level 9: above 95% growth control rate)

SMILES: CCc1nn(CC)c(O)c1C(=O)c1ccc(C(F)(F)F)c(-n2cc(C)cn2)c1Cl [Compound 142]
- weed control effect, Indian mallow (level) (Indian mallow): 5 (Level 5: above 60% growth control rate)
- weed control effect, Bidens bipinnata (level) (bidens bipinnata): 5 (Level 5: above 60% growth control rate)
- weed control effect, Crab grass (level) (crab grass): 2 (Level 2: 5%-20% growth control rate)
- weed control effect, Echinochloa (level) (echinochloa): 10
- weed control effect, Green foxtail (level) (foxtail): 6 (Level 6: above 70% growth control rate)
- weed control effect, Rorippa indica (level) (rorippa indica): 3 (Level 3: above 20% growth control rate)
- effect on crop, Corn (level) (corn): 3 (Level 3: above 20% growth control rate)
- effect on crop, Wheat (level) (wheat): 2 (Level 2: 5%-20% growth control rate)
- effect on crop, Rice (level) (rice): 7 (Level 7: above 80% growth control rate)

SMILES: CCn1nc(C2CC2)c(C(=O)c2ccc(C(F)(F)F)c(-n3cc(C)cn3)c2Cl)c1O [Compound 144]
- weed control effect, Indian mallow (level) (Indian mallow): 10
- weed control effect, Bidens bipinnata (level) (bidens bipinnata): 10
- weed control effect, Crab grass (level) (crab grass): 2 (Level 2: 5%-20% growth control rate)
- weed control effect, Echinochloa (level) (echinochloa): 10
- weed control effect, Green foxtail (level) (foxtail): 9 (Level 9: above 95% growth control rate)
- weed control effect, Rorippa indica (level) (rorippa indica): 2 (Level 2: 5%-20% growth control rate)
- effect on crop, Corn (level) (corn): 0
- effect on crop, Wheat (level) (wheat): 0
- effect on crop, Rice (level) (rice): 8 (Level 8: above 90% growth control rate)
